In ChEMBL document CHEMBL1134637, “Fluorescent tricyclic analogues of acyclovir and ganciclovir. A structure-antiviral activity study” (2001):
Converted amounts (≈) assume the structure as drawn.

How the values were obtained:
Type in all cases: functional
Human alphaherpesvirus 1 [1] = assay: Minimal inhibitory concentration to reduce virus-induced cytopathicity against KOS strain of human Herpes Simplex Virus -1
Human alphaherpesvirus 1 [2] = assay: Minimal inhibitory concentration to reduce virus-induced cytopathicity against Thymidine kinase deficient(TK-) HSV-1 of Acyclovir
Human alphaherpesvirus 1 [3] = assay: Minimal inhibitory concentration to reduce virus-induced cytopathicity against TK-/TK+ HSV-1 of VMW 837
Human alphaherpesvirus 2 [4] = assay: Minimal inhibitory concentration to reduce virus-induced cytopathicity against G strain of human Herpes Simplex Virus-2
[5] = test system: Vesicular stomatitis virus; assay: Minimal inhibitory concentration to reduce virus-induced cytopathicity against VSV
Vaccinia virus = assay: Minimal inhibitory concentration to reduce virus-induced cytopathicity against VV; conditions: Orthopoxvirus vaccinia
[6] = Minimal cytotoxic concentration (MCC) to cause a microscopically detectable change in normal cell morphology
Human alphaherpesvirus 1 [7] = assay: Minimal inhibitory concentration to reduce virus-induced cytopathicity against McIntyre strain of human Herpes Simplex Virus-1
Human alphaherpesvirus 1 [8] = assay: Minimal inhibitory concentration to reduce virus-induced cytopathicity against F strain of human Herpes Simplex Virus-1 (HSV-1)
Human alphaherpesvirus 2 [9] = assay: Minimal inhibitory concentration to reduce virus-induced cytopathicity against 196 strain of human Herpes Simplex Virus-2
Human alphaherpesvirus 2 [10] = assay: Minimal inhibitory concentration to reduce virus-induced cytopathicity against Lyons strain of human Herpes Simplex Virus-2
Human alphaherpesvirus 1 [11] = assay: Minimal inhibitory concentration to reduce virus-induced cytopathicity against Thymidine kinase deficient(TK-) HSV-1 (Acyclovir)
Human alphaherpesvirus 1 [12] = assay: Minimal inhibitory concentration to reduce virus-induced cytopathicity against TK-/TK+ HSV-1 (VMW 837)
[13] = Human alphaherpesvirus 2, read-out: MIC
[14] = Human alphaherpesvirus 1, read-out: MIC

Row | SMILES | MIC (Human alphaherpesvirus 1 [1]) [µg/mL] | MIC (Human alphaherpesvirus 1 [2]) [µg/mL] | MIC (Human alphaherpesvirus 1 [3]) [µg/mL] | MIC (Human alphaherpesvirus 2 [4]; [13]) [µg/mL] | MIC [5] [µg/mL] | MIC (Vaccinia virus) [µg/mL] | MCC [6] [µg/mL] | MIC (Human alphaherpesvirus 1 [7]) [µg/mL] | MIC (Human alphaherpesvirus 1 [8]; [14]) [µg/mL] | MIC (Human alphaherpesvirus 2 [9]) [µg/mL] | MIC (Human alphaherpesvirus 2 [10]) [µg/mL] | MIC (Human alphaherpesvirus 1 [8]) [pug ml-1] | MIC (Human alphaherpesvirus 2 [4]) [µg/mL] | MIC (Human alphaherpesvirus 1 [11]) [µg/mL] | MIC (Human alphaherpesvirus 1 [12]) [µg/mL]
1 | Cc1nc2nc3c(ncn3COCCO[Si](C)(C)C(C)(C)C)c(O)n2c1C(c1ccccc1)(c1ccccc1)c1ccccc1 | > 10 | > 10 | > 10 | > 10 | > 10 | 2 (≈ 3.23 µM) | 40 |  |  |  |  |  |  |  | 
2 | OCCOCn1cnc2c(O)n3c(CO)cnc3nc21 | > 3.2 | > 3.2 | > 3.2 | > 3.2 | > 3.2 | > 3.2 | > 16 | > 3.2 | > 3.2 | > 3.2 | > 3.2 |  |  |  | 
3 | COc1ccccc1-c1cn2c(O)c3ncn(COCCO)c3nc2n1 | 1.92 (≈ 5.4 µM) | > 80 | 9.6 (≈ 27 µM) | 1.92 (≈ 5.4 µM) | > 80 | > 80 | 400 | 1.92 (≈ 5.4 µM) | 1.92 (≈ 5.4 µM) | 9.6 (≈ 27 µM) | 9.6 (≈ 27 µM) |  |  |  | 
4 | OCCOCn1cnc2c(O)n3ccnc3nc21 | 20 (≈ 80.2 µM) | 400 (≈ 1600 µM) |  | 20 (≈ 80.2 µM) |  | 400 (≈ 1600 µM) | 400 | 20 (≈ 80.2 µM) |  | 70 (≈ 281 µM) | 10 (≈ 40.1 µM) | 4 |  |  | 
5 | O=c1c2ncn(COCCO)c2nc2n(Cc3ccccc3)c(-c3ccccc3)cn12 | > 100 | > 100 | > 100 |  | > 100 | > 100 | > 100 |  |  |  |  |  | > 100 |  | 
6 | COc1ccc(OC)c(-c2cn3c(O)c4ncn(COCCO)c4nc3n2)c1 | 9.6 (≈ 24.9 µM) | > 16 | > 16 | 9.6 (≈ 24.9 µM) | > 16 | > 16 | 80 | 16 (≈ 41.5 µM) | 16 (≈ 41.5 µM) | > 16 | > 16 |  |  |  | 
7 | OCC(CO)OCn1cnc2c(O)n3cc(-c4ccccc4)nc3nc21 | 0.02 (≈ 0.0563 µM) |  | 0.5 (≈ 1.41 µM) | 0.3 (≈ 0.844 µM) | > 175 | > 90 | > 175 | 0.005 (≈ 0.0141 µM) | 0.005 (≈ 0.0141 µM) | 0.02 (≈ 0.0563 µM) | 0.005 (≈ 0.0141 µM) |  |  |  | 
8 | OCCOCn1cnc2c(O)n3cc(-c4ccccc4)nc3nc21 | 0.4 (≈ 1.23 µM) |  | > 70 | 1.3 (≈ 4 µM) | > 100 | > 100 | > 100 | 0.2 (≈ 0.615 µM) | 0.7 (≈ 2.15 µM) | 0.2 (≈ 0.615 µM) | 0.7 (≈ 2.15 µM) |  |  |  | 
9 | O=[N+]([O-])c1ccc(-c2cn3c(O)c4ncn(COCCO)c4nc3n2)cc1 | 9.6 (≈ 25.9 µM) | > 16 | > 16 | 9.6 (≈ 25.9 µM) | > 16 | > 16 | 80 | 16 (≈ 43.2 µM) | 16 (≈ 43.2 µM) | > 16 | > 16 |  |  |  | 
10 | Cc1ccc(-c2cn3c(O)c4ncn(COCCO)c4nc3n2)cc1 | 0.43 (≈ 1.27 µM) | 9.2 (≈ 27.1 µM) | 82 (≈ 242 µM) | 0.93 (≈ 2.74 µM) | > 40 | > 40 | 250 | 0.07 (≈ 0.206 µM) | 0.07 (≈ 0.206 µM) | 0.2 (≈ 0.589 µM) | 0.4 (≈ 1.18 µM) |  |  |  | 
11 | Cc1c(-c2ccccc2)nc2nc3c(ncn3COC(CO)CO)c(O)n12 | 0.02 (≈ 0.0541 µM) | 3.2 (≈ 8.66 µM) | 0.02 (≈ 0.0541 µM) | 0.03 (≈ 0.0812 µM) | > 240 | > 400 | > 400 | 0.005 (≈ 0.0135 µM) | 0.005 (≈ 0.0135 µM) | 0.005 (≈ 0.0135 µM) | 0.02 (≈ 0.0541 µM) |  |  |  | 
12 | Nc1nc2c(ncn2COC(CO)CO)c(=O)[nH]1 [GANCICLOVIR] | 0.006 (≈ 0.0235 µM) | 0.48 (≈ 1.88 µM) | 0.07 (≈ 0.274 µM) | 0.01 (≈ 0.0392 µM) | > 100 | > 100 | > 100 | 0.006 (≈ 0.0235 µM) | 0.004 (≈ 0.0157 µM) | 0.02 (≈ 0.0784 µM) | 0.04 (≈ 0.157 µM) |  |  |  | 
13 | Nc1nc2c(ncn2COCCO)c(=O)[nH]1 [ACYCLOVIR] | 0.13 (≈ 0.577 µM) |  |  | 0.19 (≈ 0.844 µM) | > 80 | > 80 | > 400 | 0.13 (≈ 0.577 µM) | 0.08 (≈ 0.355 µM) | 0.07 (≈ 0.311 µM) | 0.28 (≈ 1.24 µM) |  |  | 19 (≈ 84.4 µM) | 7.1 (≈ 31.5 µM)
14 | OCCOCn1cnc2c(O)n3c(-c4ccc(C(c5ccccc5)c5ccccc5)cc4)c(-c4ccccc4)nc3nc21 | > 16 | > 16 | > 16 | > 16 | > 16 | > 16 | 80 | > 16 | > 16 | > 16 | > 16 |  |  |  | 
